Among the data in US20250230155A1 (Vanderbilt University, priority 2021, published 2025) are Emax and EC50 values, retold here.

The structures appear in SMILES notation.

The target of the assay is T1, human mAChR M4 (Homo sapiens, UniProt P08173).
T1 construct: expressed in transfected cells
T1 sequence (P08173 1-479): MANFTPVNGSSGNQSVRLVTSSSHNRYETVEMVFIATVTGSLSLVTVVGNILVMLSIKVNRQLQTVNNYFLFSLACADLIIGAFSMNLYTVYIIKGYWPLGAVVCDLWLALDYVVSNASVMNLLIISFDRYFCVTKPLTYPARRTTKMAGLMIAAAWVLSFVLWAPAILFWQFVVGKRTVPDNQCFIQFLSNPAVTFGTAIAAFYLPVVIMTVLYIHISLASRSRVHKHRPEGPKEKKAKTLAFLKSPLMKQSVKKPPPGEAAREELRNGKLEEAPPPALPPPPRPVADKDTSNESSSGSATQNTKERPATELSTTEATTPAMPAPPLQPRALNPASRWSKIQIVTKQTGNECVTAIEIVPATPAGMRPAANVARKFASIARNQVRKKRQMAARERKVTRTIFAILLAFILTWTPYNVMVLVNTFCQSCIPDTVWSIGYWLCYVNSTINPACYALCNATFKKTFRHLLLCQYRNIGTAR
The experiment in a line: mAChR M4 cell-based functional assay (calcium mobilization, CHO-K1 hM4-Gqi5 cells). The conditions noted are these: for Emax at 30 µM: CHO-K1, % ACh maximum at 30 μM, human M4; for EC50: positive allosteric modulator activity, increase in the EC20 acetylcholine response, CHO-K1 hM4-Gqi5 cells, read-out: Human M4 EC50; for Emax: CHO-K1. Put shortly:
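CHO-K1 cells stably expressing human M4 with chimeric Gqi5, loaded with Fluo-4 AM; compounds given as 11-point 1:3 curves and calcium flux read on FDSS at 1 Hz. Acetylcholine EC20 added at 144 s, EC80 at 230 s; agonist, PAM (EC20 potentiation) and antagonist (EC80 inhibition) EC50/Emax from four-parameter fits.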

As to `Cc1cc(C#N)cnc1N1CCc2ncc(N(C)c3ccnn3C)cc2C1` [Example 331, 5-methyl-6-(3-(methyl(1-methyl-1H-pyrazol-5-yl)amino)-7,8-dihydro-1,6-naphthyridin-6(5H)-yl)nicotinonitrile], the Emax at 30 µM came out at 86% and the EC50 turned out to be 43 nM.

Regarding `Cc1cc(C#N)cnc1N1CCc2ncc(OCCOC3CCCC3)cc2C1` [Example 433, 6-(3-(2-(cyclopentyloxy)ethoxy)-7,8-dihydro-1,6-naphthyridin-6(5H)-yl)-5-methylnicotinonitrile], the Emax at 30 µM was found to be 74% and the half-maximal effective concentration (EC50) came out at 897 nM.

On to `Cc1cc(C(=O)N2CC3CC3C2)nnc1N1CCc2ncc(C(F)(F)F)cc2C1` (stereo not shown) [Example 504, (3-azabicyclo[3.1.0]hexan-3-yl)(5-methyl-6-(3-(trifluoromethyl)-7,8-dihydro-1,6-naphthyridin-6(5H)-yl)pyridazin-3-yl)methanone], for which the Emax at 30 µM stood at 101% and the 50% effective concentration (EC50) was determined as 3870 nM.

With `Cc1cc(C(=O)N2CC(F)C2)nnc1N1CCc2ncc(N3CCCn4nccc43)cc2C1` [Example 551, (6-(3-(6,7-dihydropyrazolo[1,5-a]pyrimidin-4(5H)-yl)-7,8-dihydro-1,6-naphthyridin-6(5H)-yl)-5-methylpyridazin-3-yl)(3-fluoroazetidin-1-yl)methanone], the Emax at 30 µM is 111% and the half-maximal effective concentration (EC50) was found to be 44 nM.

Consider `COC(=O)c1cnc(N2CCc3ncccc3C2)c(C)c1` [compound 71, methyl 6-(7,8-dihydro-5H-1,6-naphthyridin-6-yl)-5-methyl-pyridine-3-carboxylate], for which the maximum response (Emax) turned out to be 102% and the EC50 is 3380 nM.

In the case of `Cc1cc(C(=O)NCc2nccs2)cnc1N1CCc2ncc(-c3c(C)noc3C)cc2C1` [compound 172, 6-[3-(3,5-dimethylisoxazol-4-yl)-7,8-dihydro-5H-1,6-naphthyridin-6-yl]-5-methyl-N-(thiazol-2-ylmethyl)pyridine-3-carboxamide], the Emax at 30 µM came out at 93% and the concentration giving a half-maximal response (EC50) came out at 78.5 nM.

Regarding `Cc1cc(C(=O)NCc2ccncc2F)nnc1N1CCc2ncc(C(F)(F)F)cc2C1` [Example 496, N-((3-fluoropyridin-4-yl)methyl)-5-methyl-6-(3-(trifluoromethyl)-7,8-dihydro-1,6-naphthyridin-6(5H)-yl)pyridazine-3-carboxamide], the maximum response (Emax) at 30 µM turned out to be 102% and the 50% effective concentration (EC50) turned out to be 37 nM.

With `[2H]C1([2H])Cc2ncc(Nc3ccncc3F)cc2C([2H])([2H])N1c1nnc(C#N)c(C)c1C` [Example 608, 6-(3-((3-fluoropyridin-4-yl)amino)-7,8-dihydro-1,6-naphthyridin-6(5H)-yl-5,5,7,7-d4)-4,5-dimethylpyridazine-3-carbonitrile], the maximum response (Emax) at 30 µM was found to be 83% and the 50% effective concentration (EC50) is 4 nM.

With `Cc1nn(C)cc1-c1cnc2c(c1)CN(c1ncc(C(N)=O)cc1C(F)(F)F)CC2` [Example 487, 6-(3-(1,3-dimethyl-1H-pyrazol-4-yl)-7,8-dihydro-1,6-naphthyridin-6(5H)-yl)-5-(trifluoromethyl)nicotinamide], the Emax at 30 µM was found to be 38% and the EC50 worked out at 2880 nM.

Turning to `Cc1c(Cl)nc(C2CC2)nc1N1CCc2ncccc2C1` [compound 84, 6-(6-chloro-2-cyclopropyl-5-methyl-pyrimidin-4-yl)-7,8-dihydro-5H-1,6-naphthyridine], the Emax stood at 71% and the EC50 is 2240 nM.

As to `Cc1cc(C(=O)NCc2cncs2)cnc1N1CCc2ncccc2C1` [compound 62, 6-(7,8-dihydro-5H-1,6-naphthyridin-6-yl)-5-methyl-N-(thiazol-5-ylmethyl)pyridine-3-carboxamide], the maximum response (Emax) at 30 µM was determined as 78% and the EC50 was 760 nM.

Regarding `Cc1c(C(=O)NCc2cccnc2)nnc(N2CCc3ncccc3C2)c1C` [compound 136, 6-(7,8-dihydro-5H-1,6-naphthyridin-6-yl)-4,5-dimethyl-N-(3-pyridylmethyl)pyridazine-3-carboxamide], the Emax at 30 µM was determined as 88% and the EC50 is 1880 nM.

As for `Cc1cc(C(=O)N2CC(C(F)F)C2)nnc1N1CCc2ncc(-c3ccnn3C)cc2C1` [Example 562, (3-(difluoromethyl)azetidin-1-yl)(5-methyl-6-(3-(1-methyl-1H-pyrazol-5-yl)-7,8-dihydro-1,6-naphthyridin-6(5H)-yl)pyridazin-3-yl)methanone], the maximal response (Emax) at 30 µM came out at 74% and the concentration for a half-maximal effect (EC50) turned out to be 91 nM.

On to `COc1ccc(Oc2cnc3c(c2)CN(c2nnc(C#N)c(C)c2C)CC3)cn1` [Example 302, 6-(3-((6-methoxypyridin-3-yl)oxy)-7,8-dihydro-1,6-naphthyridin-6(5H)-yl)-4,5-dimethylpyridazine-3-carbonitrile], for which the Emax at 30 µM was 48% and the EC50 was determined as 1710 nM.

On to `Cc1cnccc1CNC(=O)c1cc(C)c(N2CCc3ncc(C(F)(F)F)cc3C2)nn1` [Example 494, 5-methyl-N-((3-methylpyridin-4-yl)methyl)-6-(3-(trifluoromethyl)-7,8-dihydro-1,6-naphthyridin-6(5H)-yl)pyridazine-3-carboxamide], for which the Emax at 30 µM worked out at 106% and the 50% effective concentration (EC50) was determined as 36 nM.

As to `Cc1cc(C(=O)N2CCc3cccnc3C2)nnc1N1CCc2ncc(C(F)(F)F)cc2C1` [Example 500, (5,8-dihydro-1,7-naphthyridin-7(6H)-yl)(5-methyl-6-(3-(trifluoromethyl)-7,8-dihydro-1,6-naphthyridin-6(5H)-yl)pyridazin-3-yl)methanone], the maximal response (Emax) at 30 µM is 92% and the concentration for a half-maximal effect (EC50) stood at 1790 nM.

Take `Cc1nc(C)c(C)c(N2CCc3ncc(Oc4ccc(F)cc4F)cc3C2)n1` [compound 262, 3-(2,4-difluorophenoxy)-6-(2,5,6-trimethylpyrimidin-4-yl)-5,6,7,8-tetrahydro-1,6-naphthyridine]: the maximal response (Emax) at 30 µM is 77% and the EC50 was determined as 275 nM.

As to `Cc1cc(C#N)cnc1N1CCc2ncc(-c3cnn(-c4ccc(F)cc4)c3)cc2C1` [compound 106, 6-[3-[1-(4-fluorophenyl)pyrazol-4-yl]-7,8-dihydro-5H-1,6-naphthyridin-6-yl]-5-methyl-pyridine-3-carbonitrile], the Emax at 30 µM stood at 33% and the 50% effective concentration (EC50) came out at 1140 nM.

`Cc1cc(C(=O)NCc2ccncc2)cnc1N1CCc2ncc(-c3cnn(C)c3)cc2C1` [compound 176, 5-methyl-6-[3-(1-methylpyrazol-4-yl)-7,8-dihydro-5H-1,6-naphthyridin-6-yl]-N-(4-pyridylmethyl)pyridine-3-carboxamide]: the Emax at 30 µM was 89% and the EC50 stood at 188 nM.

Turning to `Cc1cc(C#N)cnc1N1CCc2ncc(-c3c(C)noc3C)cc2C1` [compound 109, 6-[3-(3,5-dimethylisoxazol-4-yl)-7,8-dihydro-5H-1,6-naphthyridin-6-yl]-5-methyl-pyridine-3-carbonitrile], the maximal effect (Emax) at 30 µM came to 90% and the EC50 was 167 nM.

Consider `Cc1cc(C(=O)NCc2cncs2)nnc1N1CCc2ncc(CC(F)(F)F)cc2C1` [Example 590, 5-methyl-N-(thiazol-5-ylmethyl)-6-(3-(2,2,2-trifluoroethyl)-7,8-dihydro-1,6-naphthyridin-6(5H)-yl)pyridazine-3-carboxamide], for which the Emax at 30 µM was found to be 94% and the EC50 stood at 41 nM.

On to `Cc1c(C(=O)NCc2ccncc2)nnc(N2CCc3ncccc3C2)c1C` [compound 135, 6-(7,8-dihydro-5H-1,6-naphthyridin-6-yl)-4,5-dimethyl-N-(4-pyridylmethyl)pyridazine-3-carboxamide], for which the maximal effect (Emax) at 30 µM amounted to 84% and the EC50 is 1800 nM.

Consider `Cc1cc(C#N)nnc1N1CCc2ncc(C(C)(O)C(F)(F)F)cc2C1` (stereo not shown) [Example 424, 5-methyl-6-(3-(1,1,1-trifluoro-2-hydroxypropan-2-yl)-7,8-dihydro-1,6-naphthyridin-6(5H)-yl)pyridazine-3-carbonitrile], for which the Emax at 30 µM amounted to 86% and the EC50 was determined as 1430 nM.

Consider `Cc1cc(C#N)nnc1N1CCc2ncc(N3CCO[C@H](C)C3)cc2C1` [Example 397, (R)-5-methyl-6-(3-(2-methylmorpholino)-7,8-dihydro-1,6-naphthyridin-6(5H)-yl)pyridazine-3-carbonitrile], for which the Emax at 30 µM came to 72% and the EC50 is 441 nM.

For the compound `Cc1cc(C(=O)N2CC(F)C2)nnc1N1CCc2ncc(-c3ccnn3C)cc2C1` [Example 563, (3-fluoroazetidin-1-yl)(5-methyl-6-(3-(1-methyl-1H-pyrazol-5-yl)-7,8-dihydro-1,6-naphthyridin-6(5H)-yl)pyridazin-3-yl)methanone], the maximal effect (Emax) at 30 µM is 69% and the half-maximal effective concentration (EC50) was determined as 74 nM.

With `Cc1nc(Cl)c(C)c(N2CCc3ncc(Nc4ccc(F)cc4F)cc3C2)n1` [compound 87, 6-(6-chloro-2,5-dimethyl-pyrimidin-4-yl)-N-(2,4-difluorophenyl)-7,8-dihydro-5H-1,6-naphthyridin-3-amine], the Emax at 30 µM was found to be 82% and the EC50 came out at 815 nM.
